According to patent EP1242382B1, “TRICYCLIC PROTEIN KINASE INHIBITORS” (Wyeth, priority 1999, dated 2001):
pIC50: −log10 of the molar value.

Tests used:
p60^c-src (Src) = biological target: T1, p60^c-src (Src) (Homo sapiens, UniProt P12931); experiment: Src kinase test procedure (Elisa format); format: biochemical; settings: dose 10 µM; read-out: Src %Inh
T1 construct: purchased Upstate Biotechnologies
Description: Inhibitors of p60^c-src (partially purified preparation purchased from Upstate Biotechnologies) tyrosine kinase activity are analyzed in an Elisa format. […] HRP-conjugated anti-phosphotyrosine is used to detect phosphorylated peptide via a color reaction. Conditions recommended by the manufacturer are employed.
Reaction conditions: Five microliter aliquots of each compound prepared fresh at the time of the assay are added as a solution in 10mM HEPES pH 7.5, 10% DMSO to the reaction well. Thirty-five microliters of reaction mix containing Src, buffer and peptide/bovine serum albumin mix are added to the compound wells and incubated at 30°C for 10 minutes (reaction buffer: 50mM TrisHCl pH 7.5, 10mM MgCl2, 0.1mM EGTA, 0.5mM Na3VO4). The reaction is started by addition of 10 microliters of ATP, incubated at 30°C for 1 hour, and stopped by addition of 20 microliters of 0.5M EDTA. The reaction mixture with the phosphorylated peptide is then transferred to a streptavidin-coated microtiter plate (provided in the kit) and allowed to bind for 20 minutes. Unbound peptide and reaction mixture is decanted and the plate is washed with PBS six times. Horseradish peroxidase-conjugated phosphotyrosine antibody supplied in the kit is incubated with the plate for one hour, then decanted. The plate is again washed with PBS six times.

[1] = biological target: T2, Kinase insert Domain containing Receptor (KDR; the catalytic domain of the VEGF receptor) (Homo sapiens, UniProt P35968); experiment: Inhibition of Kinase insert Domain containing Receptor (KDR); format: biochemical; settings: read-out: KDR %Inh (10 µM)
T2 construct: KDR; the catalytic domain of the VEGF receptor
T2 sequence (P35968 834-1162 limits assumed): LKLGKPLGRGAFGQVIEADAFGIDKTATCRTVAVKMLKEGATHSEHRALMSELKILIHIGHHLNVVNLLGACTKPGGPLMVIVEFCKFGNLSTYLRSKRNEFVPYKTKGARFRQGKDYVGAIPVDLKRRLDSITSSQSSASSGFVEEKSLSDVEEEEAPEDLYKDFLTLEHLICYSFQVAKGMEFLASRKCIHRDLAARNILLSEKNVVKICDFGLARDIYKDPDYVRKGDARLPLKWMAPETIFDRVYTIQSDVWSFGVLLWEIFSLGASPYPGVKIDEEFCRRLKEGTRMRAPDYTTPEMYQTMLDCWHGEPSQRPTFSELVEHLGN
Description: KDR protein is mixed, in the presence or absence of a inhibitor compound, with a substrate peptide to be phosphorylated (a copolymer of glutamic acid and tyrosine, E:Y :: 4:1) and other cofactors such as Mg^++ and sodium vanadate (a protein tyrosine phosphatase inhibitor) in an appropriate buffer to maintain pH (7.2). ATP and a radioactive tracer (either P^32- or P^33-labeled ATP) is then added to initiate phosphorylation. After incubation, the radioactive phosphate associated with the acid-insoluble fraction of the test procedure mixture is then quantified as reflection of substrate phosphorylation.

BxPC3 = experiment: Cell based screen for inhibitors of Raf kinase, quantitative assay; settings: Homo sapiens, BXPC-3
LnCAP = experiment: as above; settings: Homo sapiens
[2] = system: Human adenocarcinoma cell line LoVo; experiment: as above; settings: 96 h, four days incubation
Description: (§1) • Cell Lines: Human adenocarcinoma cell line LoVo which is known to be growth inhibited by low nM concentrations of a reference standard inhibitor of Ras and human adenocarcinoma cell line CaCo-2, which is known to be growth resistant to the same reference compound. • Cell Media : RPMI 1640 with 10% Fetal Bovine Serum supplemented with L-glutamine and Pennicilin/Streptomycin. • Compounds: Supplied usually as a 10 mM stock in 100% DMSO. • Normal Saline: 150 mM NaCl • Trichloroacetic Acid (TCA): 50% (w/v) in water • Sulforhodamine B (SRB): 0.4% (w/v) in 1% Acetic Acid • Tris Base: 10 mM in water
(§2) Cells are plated at 2000 cells per well for cell line LoVo and 1500 cells for cell line CaCo-2 in 96 well plates. Cells are plated in media (200 µl) and allowed to adhere overnight at 37°C. At 24 hours post plating, compounds are added directly at a volume of 0.5 µl. For the qualitative screen (compounds screened at 25 µM) compound is added directly to cells. For the quantitative screen, compound is first diluted in DMSO to generate concentrations of compound or reference standard of: 1, 5, 10 and 25 µM. It is advisable to make the dilutions in an identical 96 well plate so that compounds can be added using a multichannel micropipettor set at 0.5 µl. The cells are then incubated for four days after which the media is removed using a 12 well manifold by first tipping the plate forward at a 45 degree angle and then inserting the manifold in an upright orientation to prevent the tips of the manifold from disturbing cells at the bottom of the plate. 200 µl of normal saline is then added to each well using an 8 well multichannel pipettor, followed by the careful addition of 50 µl of 50% TCA. The plates are then incubated for 2 hours at 4°C, after which the supernatant is removed using the same technique as above and the plated washed twice with 200 µl water. The plates are then air dried and 50 µl of SRB stock solution is carefully added so that the entire bottom of each well is covered. This again can be used using an 8 well multichannel pipettor. The SRB is incubated with fixed cells for 15 minutes at room temperature after which the SRB is removed with the manifold as described above and the plates washed twice with 350 µl of 1% acetic acid per well each time. The plates are then air dried after which the bound SRB is released from protein by the addition of 200 µl of Tris base. Resolubilizing the SRB is aided by placing the plates on a rotator for 15-30 minutes. The absorbance of each well is determined at 550 or 562 nm using a microtiter plate reader.
(§3) Each compound or dilution thereof is performed in triplicate. Outliers are identified by visual inspection of the data. Each plate should have a "0" control (vehicle only).
(§4) Quantitative Assay: A standard curve is constructed by plotting the concentration of compound against the average absorbance calculated at that concentration. […] Multiple entries for a given compound indicate that it is tested multiple times.

[3] = system: human adenocarcinoma cell line CaCo-2; experiment: as above; settings: Caco-2, 96 h, four days incubation
Description: as §1, §2, §3, §4

Raf-1 (c-Raf) = biological target: T3, Raf-1 (c-Raf) (Homo sapiens, UniProt P04049); experiment: Raf1 kinase cascade assay procedure; format: biochemical
T3 construct: Sf9 insect cell lysate containing full length 6his-tagged recombinant human c-Raf; host or cells: c-Raf: Sf9 insect cell lysate; MEK1 and MAPK: E. coli
T3 sequence (P04049 whole entry): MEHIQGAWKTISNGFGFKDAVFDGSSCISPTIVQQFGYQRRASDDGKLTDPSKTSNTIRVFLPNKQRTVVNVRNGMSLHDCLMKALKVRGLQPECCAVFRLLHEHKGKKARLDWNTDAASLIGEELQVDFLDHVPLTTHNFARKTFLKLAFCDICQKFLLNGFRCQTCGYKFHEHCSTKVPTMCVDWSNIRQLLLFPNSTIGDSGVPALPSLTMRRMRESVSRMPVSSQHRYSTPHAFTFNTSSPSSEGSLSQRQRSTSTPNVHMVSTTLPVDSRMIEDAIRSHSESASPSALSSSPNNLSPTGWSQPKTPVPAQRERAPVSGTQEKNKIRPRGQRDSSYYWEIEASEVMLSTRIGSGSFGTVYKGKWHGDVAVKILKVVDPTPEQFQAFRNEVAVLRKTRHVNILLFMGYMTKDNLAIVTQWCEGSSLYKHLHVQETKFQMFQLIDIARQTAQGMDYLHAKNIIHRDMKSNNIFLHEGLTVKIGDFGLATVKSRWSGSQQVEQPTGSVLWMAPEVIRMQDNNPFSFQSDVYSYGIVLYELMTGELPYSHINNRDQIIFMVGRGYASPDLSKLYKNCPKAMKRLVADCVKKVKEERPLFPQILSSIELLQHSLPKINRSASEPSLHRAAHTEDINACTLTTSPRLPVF
Description: (Specific Activity: ~200U/ml). Human Non-active Mek-1-GST and human GST-MAP kinase (recombinant proteins produced in E. coli).
• 1. Assay Dilution Buffer (ADB): 20mM MOPS, pH 7.2, 25mM β-glycerol phosphate, 5mM EGTA, 1mM sodium orthovanadate, 1mM dithiothreitol. • 2. Magnesium/ATP Cocktail: 500µM cold ATP and 75 mM magnesium chloride in ADB. • 4. Active Kinase: Human Active c-Raf: Use at 0.4U per assay point • 5. Non-active GST-MEK1: Use at 0.1µg per assay point. • 6. Non-active GST-p42 MAP Kinase: Use at 1.0 µg per assay point
• 1. TBST - Tris (50 mM, pH 7.5), NaCl (150 mM), Tween-20 (0.05 %) • 2. Superblock (Pierce) • 3. Anti-GST Ab (Pharmacia) • 4. Anti-Phospho MAPK (Sigma) • 5. Anti-Mouse Ab / Europium conjugate (Wallac)
First Stage: c-Raf Dependent Activation of GST-MEK and GST-MAPK • 1. Add […] of ADB per assay (i.e. per well of a 96 well plate) • 2. Add 10 ml of 0.5 mM cold ATP and 75 mM magnesium chloride in ADB. • 3. Add 2 ml of c-Raf (0.4U/assay), in conjunction with 1.6ml non-active MEK1 ([…]). • 4. Add 4 ml of non-active GST-p42 MAP Kinase (1.0 mg/assay). • 5. Incubate for 60 minutes at 30°C in a shaking incubator. • 6. Transfer this mixture to an anti-GST Ab coated 96 well plate (Nunc Immunosorb plates coated o/n with a-GST, then blocked with Pierce Superblock). • 7. Incubate for 60 minutes at 30°C in a shaking incubator Wash 3X with TBST, add Anti-Phospho MAPK (Sigma) (1:3000) • 6. Incubate for 60 minutes at 30°C in a shaking incubator • 7. Wash 3X with TBST, add Anti-Mouse Ab / Europium conjugate (Wallac) (1:500) • 8. Incubate for 60 minutes at 30°C in a shaking incubator • 9. Wash 3X with TBST, Read plates in Wallac Victor model Plate Reader. • 10. Collect data analyze in Excel for single point and IC50 determinations.
Typically Raf-1 assay is run at compound concentrations from 10 µM to 1 nM in half log dilutions. (% inhibition is determined for each compound concentration).

[4] = system: Rat2 fibroblasts stably transformed with v-Src/Hu c-Src fusion gene; experiment: Anchorage independent Src-transformed fibroblast proliferation test procedure; format: cell-based; settings: Rattus norvegicus, read-out: Src TF prolif %Inh
Text: Anchorage Independent Src-transformed Fibroblast Proliferation Test Procedure: Rat2 fibroblasts stably transformed with a plasmid containing a CMV promotor controlled v-Src/Hu c-Src fusion gene in which the catalytic domain of human c-Src is inserted in place of the v-Src catalytic domain in the v-Src gene are used for the measurement of src dependent suspension growth.

HT-29 cells = experiment: Cell proliferation test procedure, HT-29 cells (MTS); format: cell-based; settings: Homo sapiens, read-out: HT-29 prolif %Inh
Description: HT-29 cells: Compound effectiveness at inhibiting cell proliferation on plastic is performed in a 96-well format by plating 5000 cells per well in appropriate medium on day one, followed by compound addition on day 2 in serial two-fold dilutions. On day five, compound is washed away and medium containing MTS reagent (Promega) is added. Relative cell number is determined by reading the absorbance at 490nm of a dye produced by an NAD-dependent cellular enzymatic reaction.

T1 sequence (P12931 whole entry): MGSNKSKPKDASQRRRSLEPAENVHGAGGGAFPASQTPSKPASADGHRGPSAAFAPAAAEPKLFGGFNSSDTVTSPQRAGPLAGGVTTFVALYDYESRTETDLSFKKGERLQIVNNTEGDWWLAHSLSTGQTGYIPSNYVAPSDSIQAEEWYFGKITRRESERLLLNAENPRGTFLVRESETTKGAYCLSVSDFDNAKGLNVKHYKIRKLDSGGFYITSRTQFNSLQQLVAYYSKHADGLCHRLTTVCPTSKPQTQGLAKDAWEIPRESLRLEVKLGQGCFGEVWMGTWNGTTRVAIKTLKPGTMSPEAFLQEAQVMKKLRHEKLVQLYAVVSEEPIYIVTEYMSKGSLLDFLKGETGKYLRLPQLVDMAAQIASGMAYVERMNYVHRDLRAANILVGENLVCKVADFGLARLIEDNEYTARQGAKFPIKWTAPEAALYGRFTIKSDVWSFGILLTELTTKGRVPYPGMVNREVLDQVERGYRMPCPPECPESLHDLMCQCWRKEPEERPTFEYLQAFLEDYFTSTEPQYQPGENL

Row | Compound | pIC50 (BxPC3) | pIC50 (LnCAP) | pIC50 [2] | pIC50 [3] | pIC50 (Raf-1 (c-Raf)) | inhibition at 10 µM (HT-29 cells) [%] | further results
1 | Cc1ccc(Nc2c(C#N)cnc3c2oc2ccccc23)cc1O [Example 87, 4-(3-Hydroxy-4-methylphenylamino)benzo[4,5]furo[3,2-b]pyridine-3-carbonitrile] |  |  |  |  |  |  | inhibition at 10 µM (p60^c-src (Src)): 0%; inhibition at 10 µM [1]: 32%
2 | COc1cc2cc3c(Nc4ccc(Sc5nccn5C)c(Cl)c4)c(C#N)cnc3cc2cc1OCCN1CCOCC1 [Example 149, 4-[3-Chloro-4-(1-methyl-1H-imidazol-2-ylsulfanyl)phenylamino]-7-methoxy-8-(2-morpholin-4-yl-ethoxy)benzo[g]quinoline-3-carbonitrile] | 7.43 | 7.28 | 8.22 | 6.05 | 8.40 |  | 
3 | N#Cc1cnc2c(c1Nc1ccc(Cl)cc1Br)C=C1N=CN=C1C2 [Example 38, 8-(2-Bromo-4-chlorophenylamino)imidazo[4,5-g]quinoline-7-carbonitrile] |  |  |  |  |  | 25 | inhibition at 10 µM [4]: 0%
4 | COc1cc(Nc2c(C#N)cnc3c2C=C2N=CN=C2C3)cc(OC)c1OC [Example 42, 8-(3,4,5-Trimethoxyanilino)imidazo[4,5-g]quinoline-7-carbonitrile] |  |  |  |  |  | 0 | inhibition at 0.22 µM ([4]; @ dose 0.22 µM): 50%
5 | COc1cc2cc3c(Nc4ccc(Sc5nccn5C)c(Cl)c4)c(C#N)cnc3cc2cc1OCCN1CCN(C)CC1 [Example 152] | 7.40 | 7.49 | 7.54 | < 6.00 | 8.10 |  | 
6 | COc1ccc(Cl)c(Nc2c(C#N)cnc3c2C=C2N=CN=C2C3)c1 [Example 40, 8-(2-Chloro-5-methoxy-phenylamino)imidazo[4,5-g]quinoline-7-carbonitrile] |  |  |  |  | 6.15 | 10 | inhibition at 10 µM [4]: 0%
7 | Cc1ccc(Nc2c(C#N)cnc3c2sc2ccccc23)cc1O [Example 70, 4-(3-Hydroxy-4-methylphenylamino)benzo[4,5]thieno[3,2-b]pyridine-3-carbonitrile] |  |  |  |  |  |  | inhibition at 10 µM [1]: 22%
8 | COc1cc2cc3c(Nc4ccc(Sc5nccn5C)c(Cl)c4)c(C#N)cnc3cc2cc1OCCn1ccnn1 [Example 154, 4-[3-Chloro-4-(1-methyl-1H-imidazol-2-ylsulfanyl)phenylamino]-7-methoxy-8-(2-[1,2,3]triazol-1-yl-ethoxy)benzo[g]quinoline-3-carbonitrile] | 7.40 |  | 7.37 | < 6.00 | 8.10 |  | 

Now from value to molecule, other results behind:

Row | pIC50 (BxPC3) | pIC50 (LnCAP) | pIC50 [2] | pIC50 [3] | pIC50 (Raf-1 (c-Raf)) | Compound | inhibition at 10 µM (HT-29 cells) [%] | further results
9 | 7.40 | 7.92 | 8.07 | 6.15 | 8.15 | COc1cc2cc3c(Nc4ccc(Sc5nccn5C)c(Cl)c4)c(C#N)cnc3cc2cc1OCCCN1CCOCC1 [Example 151, 4-[3-Chloro-4-(1-methyl-1H-imidazol-2-ylsulfanyl)phenylamino]-7-methoxy-8-(3-morpholin-4-yl-propoxy)benzo[g]quinoline-3-carbonitrile] |  | 
10 |  |  |  |  | 6.05 | COc1cc(Nc2c(C#N)cnc3c2C=C2N=CN=C2C3)c(Br)cc1Cl [Example 39, 8-(2-Bromo-4-chloro-5-methoxyphenylamino)imidazo[4,5-g]quinoline-7-carbonitrile] | 35 | inhibition at 10 µM [4]: 25%
11 | 7.42 | 7.72 | 8.03 | < 6.00 | 7.92 | COc1cc2cc3c(Nc4ccc(Sc5nccn5C)c(Cl)c4)c(C#N)cnc3cc2cc1OCCn1nccn1 [Example 153, 4-[3-chloro-4-(1-methyl-1H-imidazol-2-ylsulfanyl)phenylamino]-7-methoxy-8-(2-[1,2,3]triazol-2-yl-ethoxy)benzo[g]quinoline-3-carbonitrile] |  | 
